Source: ChEMBL document CHEMBL2375231, “Tricyclic thiazoles are a new class of angiogenesis inhibitors” (Bioorg Med Chem Lett, 2013)

What was measured:
HeLa [1] = experiment: Antiproliferative activity against human HeLa cells assessed as inhibition of [3H]thymidine incorporation incubated for 24 hrs prior to [3H]thymidine addition measured after 6 hrs by microbeta counting analysis; assay type: functional, cell-based
[2] = Antiproliferative activity against human Jurkat T cells assessed as inhibition of [3H]thymidine incorporation incubated for 24 hrs prior to [3H]thymidine addition measured after 6 hrs by microbeta counting analysis; assay type: functional, cell-based
HUVEC [3] = experiment: Antiangiogenic activity against human HUVEC cells assessed as inhibition of [3H]thymidine incorporation incubated for 24 hrs prior to [3H]thymidine addition measured after 6 hrs by microbeta counting analysis; assay type: functional, cell-based
BT-474 = experiment: Antiproliferative activity against human BT474 cells assessed as inhibition of [3H]thymidine incorporation incubated for 24 hrs prior to [3H]thymidine addition measured after 6 hrs by microbeta counting analysis; assay type: functional, cell-based
HUVEC [4] = experiment: Selectivity ratio of IC50 for human BT474 cells to IC50 for human HUVEC cells; assay type: functional
HeLa [5] = experiment: Selectivity ratio of IC50 for human HeLa cells to IC50 for human HUVEC cells; assay type: functional
HUVEC [6] = experiment: Selectivity ratio of IC50 for human Jurkat T cells to IC50 for human HUVEC cells; assay type: functional
HUVEC [7] = experiment: Antiangiogenic activity against human HUVEC cells assessed as inhibition of tube formation at 5 uM after 16 to 18 hrs by Calcein-AM staining-based fluorescence microscopic analysis; assay type: functional
HUVEC [8] = experiment: Antiangiogenic activity against human HUVEC cells assessed as inhibition of tube formation after 16 to 18 hrs by Calcein-AM staining-based fluorescence microscopic analysis; assay type: functional, cell-based

Compound | IC50 (HeLa [1]) [µM] | IC50 [2] [µM] | IC50 (HUVEC [3]) [µM] | IC50 (BT-474) [µM] | other results
C#CCOc1ccc(C(=O)Nc2nc3c(s2)CSc2ccccc2-3)cc1 | 5 | 4.6 | 2.9 | 0.3 | Ratio IC50 (HUVEC [4]): 0.1; Ratio IC50 (HeLa [5]): 1.7; Ratio IC50 (HUVEC [6]): 1.6
CCOC(=O)Nc1nc2c(s1)CSc1ccc(Cl)cc1-2 | 6.5 | 6.3 | 2.8 | 6.2 | Ratio IC50 (HUVEC [4]): 2.2; Ratio IC50 (HeLa [5]): 2.3; Ratio IC50 (HUVEC [6]): 2.3
C#CCOc1ccc(C(=O)Nc2nc3c(s2)CCCc2ccccc2-3)cc1 | – | – | 7.3 | – | –
CC(=O)Nc1nc(-c2ccc(Cl)cc2)cs1 | – | – | > 10 | – | –
CCC(=O)Nc1nc2c(s1)CCCC2 | – | – | > 10 | – | –
Nc1nc2c(s1)Cc1cc(F)ccc1-2 | – | – | > 10 | – | –
Nc1nc2c(s1)COc1ccccc1-2 | – | – | > 10 | – | –
Nc1nc2c(s1)-c1ccccc1CC2 | – | – | > 10 | – | –
[N-]=[N+]=NCCCCCCNc1nc2c(s1)CSc1ccccc1-2 | – | – | 5.9 | – | –
COc1ccc(-c2csc(NC(C)=O)n2)cc1OC | – | – | > 10 | – | –
Nc1nc2c(s1)CSc1ccccc1-2 | 6.8 | 0.9 | 1.9 | 8.2 | Ratio IC50 (HUVEC [4]): 4.3; Ratio IC50 (HeLa [5]): 3.6; Ratio IC50 (HUVEC [6]): 0.5
COc1ccc2c(c1)CCc1sc(NCc3ccco3)nc1-2 | – | – | 4.5 | – | –
Nc1nc2c(s1)CCCc1ccccc1-2 | > 20 | > 20 | 19.1 | > 20 | –
COc1ccc2c(c1)-c1nc(NC(C)=O)sc1CC2 | – | – | 4.2 | – | –
O=C(Nc1nc2c(s1)CSc1ccc(Cl)cc1-2)c1c(F)cccc1F | > 20 | 17.3 | 5.2 | 3.6 | Ratio IC50 (HUVEC [4]): 0.7; Ratio IC50 (HeLa [5]): >4; Ratio IC50 (HUVEC [6]): 3.3
CCC(=O)Nc1nc2c(s1)CSc1ccccc1-2 | 8 | 4.9 | 2 | 5.9 | Ratio IC50 (HUVEC [4]): 3; Ratio IC50 (HeLa [5]): 4; Ratio IC50 (HUVEC [6]): 2.5
CCOC(=O)Nc1nc2c(s1)CCCc1ccccc1-2 | > 20 | > 20 | 9.2 | > 20 | –
COc1cc2c(cc1OC)-c1nc(N)sc1CC2 | – | – | > 10 | – | –
CCC(=O)Nc1nc2c(s1)CCCc1ccccc1-2 | > 20 | > 20 | 3.7 | > 20 | Ratio IC50 (HUVEC [4]): >5; Ratio IC50 (HeLa [5]): >5; Ratio IC50 (HUVEC [6]): >5
O=C(Nc1nc2c(s1)CCCc1ccccc1-2)c1c(F)cccc1F | 15.2 | > 20 | 1.5 | > 20 | inhibition at 5 µM (HUVEC [7]): 75%; inhibition (HUVEC [8]): Dose-dependent effect; Ratio IC50 (HUVEC [4]): >13; Ratio IC50 (HeLa [5]): 10; Ratio IC50 (HUVEC [6]): >13
Nc1nc2c(s1)CCc1ccccc1-2 | – | – | > 10 | – | –
COc1ccc2c(c1)-c1nc(N)sc1CC2 | – | – | > 10 | – | –
COc1cccc2c1CCc1sc(N)nc1-2 | – | – | > 10 | – | –
CCC(=O)Nc1nc2c(s1)CCc1cc(OC)c(OC)cc1-2 | – | – | > 10 | – | –

Compound | IC50 (HeLa [1]) [µM] | IC50 [2] [µM] | IC50 (HUVEC [3]) [µM] | IC50 (BT-474) [µM] | other results
CCC(=O)N(C(=O)CC)c1nc2c(s1)CCCc1ccccc1-2 | 5.9 | 2.8 | 1.5 | > 20 | Ratio IC50 (HUVEC [4]): >13; Ratio IC50 (HeLa [5]): 4; Ratio IC50 (HUVEC [6]): 1.9
CC(=O)Nc1nc2c(s1)CCc1ccccc1-2 | – | – | > 10 | – | –
CCC(=O)Nc1nc2c(s1)COc1ccccc1-2 | – | – | > 10 | – | –
COc1ccc2c(c1)CCc1sc(NC(C)=O)nc1-2 | – | – | > 10 | – | –
Nc1nc2c(s1)CSc1ccc(Cl)cc1-2 | 11.9 | 1.6 | 1.9 | 3.8 | Ratio IC50 (HUVEC [4]): 2; Ratio IC50 (HeLa [5]): 6.3; Ratio IC50 (HUVEC [6]): 0.8
COc1ccc2c(c1)Cc1sc(N)nc1-2 | – | – | > 10 | – | –
O=C(Nc1nc2c(s1)CSc1ccccc1-2)c1c(F)cccc1F | 13.1 | 11.8 | 12 | 7.2 | –
Nc1nc2c(s1)CCOc1cc3c(cc1-2)OCO3 | – | – | 5.1 | – | –
CCC(=O)Nc1nc2c(s1)Cc1cc(F)ccc1-2 | – | – | > 10 | – | –
CCC(=O)Nc1nc2c(s1)COc1ccc(F)cc1-2 | – | – | > 10 | – | –
CCCCCC(=O)Nc1nc2c(s1)CCc1ccccc1-2 | – | – | 3 | – | –
COc1ccc2c(c1)CCc1sc(N)nc1-2 | – | – | > 10 | – | –
Nc1nc2c(s1)CCCc1ccc(F)cc1-2 | 16.2 | > 20 | 14.8 | > 20 | –
Clc1ccc2c(c1)-c1nc(NCc3ccco3)sc1CS2 | 10.3 | 2.5 | 1.1 | 2.3 | inhibition (HUVEC [8]): Dose-dependent effect; Ratio IC50 (HUVEC [4]): 2.1; Ratio IC50 (HeLa [5]): 9.4; Ratio IC50 (HUVEC [6]): 2.3
COc1cccc2c1CCc1sc(NC(C)=O)nc1-2 | – | – | > 10 | – | –
Nc1nc2c(s1)COc1ccc(F)cc1-2 | – | – | > 10 | – | –
Nc1nc(-c2ccc(Cl)cc2)cs1 | – | – | > 10 | – | –
COc1ccc(-c2csc(N)n2)cc1OC | – | – | > 10 | – | –
O=C(Nc1nc2c(s1)CCCc1ccc(F)cc1-2)c1c(F)cccc1F | > 20 | > 20 | 13.5 | > 20 | –
COc1ccc2c(c1)Cc1sc(NC(C)=O)nc1-2 | – | – | 4.4 | – | –
CCCCCC(=O)Nc1nc2c(s1)CCc1cc(OC)ccc1-2 | – | – | 3.7 | – | –
CC(=O)Nc1nc2c(s1)-c1ccccc1CC2 | – | – | > 10 | – | –
Nc1nc2c(s1)CCCC2 | – | – | > 10 | – | –
